The values below are quoted from earlier work in patent US20170209576A1, “DELIVERY COMPOSITIONS AND METHODS” (REGENTS OF THE UNIVERSITY OF MINNESOTA, priority 2014, published 2017).

For series [1] the following is noted: aqueous solution.
The conditions of series [2]: micropipette techniques.

Turning to “1,2-Distearoyl-sn-glycero-3-phosphoethanolamine (DSPE)-PEG^2000 [DSPE-PEG^2000]”, the “critical micelle concentration (CMC)” value in series [1] is 5.8 µM.
Regarding `CCCCCCCCCCCCCCCC(=O)OCC(COP(=O)(O)OCCN)OC(=O)CCCCCCCCCCCCCCC` (stereo not shown) [DPPE, dipalmitoylphosphatidylethanolamine], the “pKa of terminal amine group” value is 9.8.
`CCCCCCCCCCCCCCCC(=O)OC[C@@H](O)COP(=O)([O-])OCC[N+](C)(C)C` [MPPC, monopalmitoyl phosphatidyl choline]: the “rate of adsorption of monomers into the outer bilayer leaflet” value in series [2] was 0.2 s⁻¹. In addition, in series [1], the “critical micelle concentration (CMC)” value was 4 µM.
